Results on 4 compounds are retold here after patent US20260014129A1, “MITOCHONDRIAL PYRUVATE METABOLISM INHIBITORS FOR TREATING CHRONIC MYELOID LEUKEMIA” (The University Court of the University of Glasgow, priority 2022, published 2026).

In assay [1] the test system is CML CD34+ cells. Kind of assay: Patient-derived xenograft of CML CD34+ cells in NRG-W41 mice, bone marrow flow cytometry. The following applies: 4 weeks. Format: in vivo, human. On the procedure:
Treatment was given for 4 weeks. For treatment with asciminib (ABL001) plus MSDC-0160, twelve weeks following transplant, drug treatment was started with both asciminib (Fisher Scientific Cat #1642956) dosed at 10 mg/kg/day (5 mg/kg BID); oral gavage and MSDC-0160 (Apex Biotechnology: Cat #B3702) dosed at 30 mg/kg; oral gavage once daily. Treatment was given for 4 weeks. At the respective endpoints, bone marrow cells were collected. This was done by placing inverted cut leg bones into 0.5 mL Eppendorf tubes with holes at bottom. These in turn were placed within 1.5 mL Eppendorf tubes containing PBS, centrifuged (12,000 RCF, 20 seconds). Cells were stained (300 μl/test) with anti-mouse (APC-Cy7 BD Biosciences: Cat #557659, RRID: AB_396774, 1 μl), anti-human CD45 (FITC; BD Biosciences: Cat #555482, RRID: AB_395874, 10 μl), anti-human CD34 (APC; BD Biosciences: Cat #555824, RRID: AB_398614, 2 μl) and anti-human CD38 (PerCP; BioLegend: Cat #303520, RRID: AB_893313, 2 μl) antibodies for flow cytometry analysis as described above.

The subject of the next assay is K562 CML cell line. Kind of assay: 13C6 glucose tracing in K562 CML cell line. The assay is classed as cell-based, human. The following applies: K562, several concentrations. On the procedure:
(§1) For conjugation of palmitate, a 20 mM stock was made in 100% EtOH. This was incubated on a shaking heater, 60° C. until the solution clarified. The palmitate was then added to 10% BSA (ultra-fatty acid free in EBSS, Roche, 03117057001) to give a palmitate:BSA ratio of 1:3 BSA. This solution was left for 15 min in water bath (37° C.), and then added to final concentration in complete medium. For cell line experiments, the medium was RPMI with 10% dialysed FBS and 1% penicillin/streptomycin. For tracing experiments 11 mM ^13C6 glucose was added to glucose-free RPMI.
(§2) Biological and technical replicates were processed through Autoplotter (56) and natural abundance was corrected for. Fraction of enrichment was calculated as m+2 and above. For CML samples treated with or without imatinib, multiple paired T-tests were conducted on Log 10 transformed values in Graphpad Prism. The correction for multiple comparisons was the two-stage step-up method of Benjamini, Krieger and Yekutieli with an FDR (Q) value of 10%. For volcano plots Log 10 FC vs Log 10 (q value) are plotted with q values>5% in red and >10% in blue. For normal vs CML comparisons, the process was the same with the exception that unpaired t-tests were used. For PC activity in normal vs CML, this is denoted by fraction m+3. For imatinib vs untreated we look at relative activity to PDH. IE., the m+3/m+2 ratio and conducted multiple t-tests with correction for multiple comparisons being the two-stage step-up method of Benjamini, Krieger and Yekutieli with an FDR (Q) value of 10%. To examine contribution to carbon pool we corrected contribution of each isotopologue by the number of carbons it contributes to a given metabolite, i.e., for glutamine contribution from m+5 is greater than m+3. Note that for cell line experiments standard deviation is shown.

Assay [2] relates to CML CD34+ cells. As to the kind of experiment: LC-MS steady state metabolite analysis of primary CML CD34+ cells. The following applies: nilotinib treatment, data not shown. The assay is classed as cell-based, human. The method, then:
(§3) Cells were counted using a CASY counter with the following parameters: E-cur 7.5-22.5, N-cur 5.25-20.5. Cell number was multiplied by peak volume (size) and this number was used to calculate volume of solvent to extract in. Cells were pelleted by centrifugation (400 RCF, 10 minutes, room temperature) at which medium was removed for YSI analysis. Cells were then washed twice with ice cold PBS (Calcium and Magnesium free: Thermo Fisher Scientific) with pulse centrifugation (12,000RCF, 15 seconds, 4° C.) used between and after washes. Cells were then extracted in LC-grade ACN:MeOH:H2O solvent (−20° C., 5:3:2) by disrupting the pellet by pipetting followed by a 5 second vortex. Finally, debris was pelleted by centrifugation (16,000RCF, 10 minutes, 4° C.), supernatant transferred to LC-MS glass vials that were stored at −80° C. until analysis.
The LC system composed of a ZIC-pHILIC column (SeQuant, 150×2.1 mm, 5 μm, Merck KGaA) with a ZIC-pHILIC guard column (SeQuant, 20×2.1 mm) with an UltiMate 3000 HPLC system (Thermo Fisher Scientific). The aqueous mobile-phase solvent was 20 mM ammonium carbonate-0.1% ammonium hydroxide solution and with acetonitrile being used for organic mobile phase. A linear biphasic LC gradient was conducted from 80% organic to 80% aqueous for 15 min for a total run time of 22 min. The column temperature was maintained at 45° C. flow rate set to 200 μL/min.
The MS used in this study was a qExactive Plus Orbitrap Mass Spectrometer (Thermo Fisher Scientific) operating in polarity switching mode. The MS set up was calibrated using a custom CALMIX in both ionization modes before analysis and a tune file targeted towards the lower m/z range was used. Full scan (MS1) data was acquired in both ionization modes in profile mode at 70,000 resolution (at m/z range 75-1000), an automatic gain control (AGC) target of 1×10^6 (max fill time of 250 ms), with spray voltages +4.5 kV (capillary +50V, tube: […], skimmer: +20V) and −3.5 kV (capillary −50V, tube: […], skimmer: −20V) and s-lens RF level of 50 for the front optics. The capillary temperature 375° C., probe temperature 50′C, sheath gas flow rate 25, auxiliary gas flow rate 15a.u. 15 and sweep gas flow rate of 1a.u.
(§4) The peak areas of different metabolites were determined using Tracefinder 4.1 software (Thermo Fisher Scientific). Metabolites were identified by accurate mass of the singly charged ion and by known retention times on the pHILIC column. A commercially available standard compound mix (Merck: MSMLS-1EA) had been analysed previously on our LC-MS system to determine accurate ion masses and retention times. The 13C labelling was determined by quantifying peak areas for the accurate mass of all isotopologues of each metabolite.
Two independent experiments were performed, data normalised to first sample in each experiment, processed through Autoplotter (56), samples as experiments, and normalised data as replicates. […] For MSDC-0160 treated samples a batch correction (to non-drug control) was used prior to analysis using Metabonalyst. Volcano plots were generated, and an FDR adjusted t-test threshold 0.1 was utilised. Note both fold changes and p-values are log transformed. Top-25 scoring metabolites are included in heatmap.

Assay [3] concerns CML CD34+ cells. As to the kind of experiment: 13C stable isotope tracing (glucose, glutamine, palmitate) in primary CML CD34+ cells. Format: cell-based, human. The following applies: nilotinib treatment, data not shown. On the procedure:
as §1, §3, §4
as §2, with “10%.” for “10%. To examine contribution to carbon pool we corrected contribution of each isotopologue by the number of carbons it contributes to a given metabolite, i.e., for glutamine contribution from m+5 is greater than m+3. Note that for cell line experiments standard deviation is shown.”

In a further assay the test system is phospho-AMPK. The following applies: previously shown (ref 42); cited from earlier work.
The subject of the next assay is K562 cells. As to the kind of experiment: Viability (Annexin V/7AAD) and CFC assays of vector control versus PC knockout K562 cells. The following applies: 72 hours; 600 nm imatinib or 100 nm omacetaxine. Format: cell-based, human. The method, then: (a) Western blot of PC and loading control (tubulin) from vector control or PC knockout K562 cells. (b) Proliferation of K562 cells from A. Shown is average and SEM from 3 independent experiments. (c) Fractional labelling from ^13C6 glucose into indicated metabolites of PC knockout cells are shown (n=3) after 24 hours. Plots were generated using Autoplotter, average and SD are plotted. Statistical analyses were conducted on the m+5 fraction. An ordinary one-way ANOVA was used with Dunnett's test used to correct for multiple comparisons. (d) Cells viability was measured using Annexin V and 7AAD. Cells were either left untreated (UT) or exposed for 72 hours to 600 nm imatinib or 100 nm omacetaxine (OMA). Shown is average and SEM from 4 independent experiments. An ordinary one-way ANOVA was used with Dunnett's test used to correct for multiple comparisons. (e) Colony Forming Cell (CFC) potential of control and […] cells. Cells were either left untreated (UT) or exposed for 72 hours to 600 nm imatinib. Shown is average and SEM from 4 independent experiments. An ordinary one-way ANOVA was used with Dunnett's test used to correct for multiple comparisons. […]

For the compound `O=C(Nc1ccc(OC(F)(F)Cl)cc1)c1cnc(N2CC[C@@H](O)C2)c(-c2ccn[nH]2)c1` [ABL-001], the “engraftment of human CML cells in bone marrow” value with CML CD34+ cells [1] (ABL-001 10 mg/kg/day (5 mg/kg BID), 12 weeks engraftment) was “variable increase in engraftment”. Besides, the “CD34+ cells in bone marrow” value in the assay on CML CD34+ cells [1] (ABL-001 10 mg/kg/day) was “not affected”.
Turning to `N#C/C(=C\c1cn(-c2ccccc2)c2ccccc12)C(=O)O` [UK-5099], in the assay on K562 CML cell line, the “labelled fractions in alpha-ketoglutarate (AKG) and AKG-derived glutamate” value was “reducing levels of all labelled fractions in these metabolites in a concentration-dependent manner”. Besides, in the assay with K562 CML cell line (data not shown), the “glucose contribution to fraction of labelling” value was “concentration-dependent reduction”.
Regarding `Cc1cn(-c2cc(NC(=O)c3ccc(C)c(Nc4nccc(-c5cccnc5)n4)c3)cc(C(F)(F)F)c2)cn1` [nilotinib], the total metabolite levels result with CML CD34+ cells [2] was “reduction”. Further, the “13C-glucose incorporation into TCA cycle metabolites” value with CML CD34+ cells [3] is given as “reduction”. Besides, the “phospho-AMPK in CD34+ CML cells” value with phospho-AMPK is “increase”.
Regarding `COC(=O)C[C@](O)(CCCC(C)(C)O)C(=O)O[C@@H]1C(OC)=C[C@]23CCCN2CCc2cc4c(cc2[C@H]13)OCO4` [omacetaxine mepesuccinate], in the assay with K562 cells, the “sensitisation of K562 to the drug by PC ablation, viability and CFC assays” value is “not observed”.
